# Measurements reported in patent publication US8350062B2, “Synthesis and anticancer activity of new actin-targeting small-molecule agents” (priority 2009, dated 2013).
# Key:
# [1] = target: T1, G-actin (Oryctolagus cuniculus, UniProt P68135); assay: Isothermal titration calorimetry, binding to monomeric actin; set-up: species or system rabbit
# T1 construct: Actin was purified from rabbit muscle acetone powder; tissue Pel-Freez Biologicals (acetone powder); host or cells: rabbit muscle acetone powder
# Protocol: Isothermal Titration Calorimetry. A solution of rabbit skeletal muscle actin (5-10 μM) was titrated with bistramide A or its analog (50-100 μM) at 25° C. in buffer containing 2 mM Tris HCl, pH 8.0, 0.2 mM CaCl2, 0.01% NaN3, 0.2 mM ATP, 0.2 mM 2-mercaptoethanol. Dissociation constants were calculated from the binding curve using Origin analytical software (OriginLab) with the binding model involving a single set of identical sites
# [2] = tested on: A549 cells; assay: Cell viability assay (CellTiter-Glo), growth inhibition of A549 cells; format: cell-based, human; settings: Homo sapiens, A549, 48 h, 48 h incubation
# Protocol: Cell Viability Assays. All assays were performed using at least three replicate wells for each concentration tested. Original 10-25 mM DMSO stock solution of bistramide A or its analogs was diluted to 100 μM for analogs 4-8, 10 μM for analog 3, 5 μM for analog 2 and 1 μM for bistramide A (1) with F-12K cell culture media supplemented with 10% fetal bovine serum, 100 I.U./ml penicillin, 100 μg/ml streptomycin and 2 mM L-glutamine. Two-fold serial dilutions were performed and used for cell-based assays. A549 cells were grown in 96-well white plates at the density of 1,000 cells per well in 100 μl F-12K cell culture media. Cells were allowed to attach over 24 h and treated with 30 μl of the drug solution and incubated further for 48 h. After incubation, cell viability was determined using luminescence-based commercial kit (CellTiter-Glo, Promega) and luminescence measured using a Wallac Victor 3 plate reader. To measure cell growth inhibition, viability assays were performed twice: at initial time point T0 and after 48 h incubation (T48). Change in the number of viable cells was measured, and GI50 was calculated from sigmoidal plots. For analog 10, growth of A549 and PC3 cells was monitored over 96 h following addition of the drug. 100 μM was the highest concentration tested. At no point did the total DMSO conc. exceed 1%.
# [3] = tested on: F-actin in A549 cells; assay: Fluorescent visualization of F-actin in A549 cells (Alexa Fluor 488 phalloidin); format: cell-based, human; settings: 2 h incubation
# Protocol: The presence of the enone increased the severing efficiency of the analogs three-fold. […] We determined whether it was the depletion of actin filaments by analogs 2-5 which was responsible for the growth inhibition of A549 cells. Each of the compounds was incubated with A549 cells for 2 h at a concentration that exceeded the GI50 value by a factor of 5. The cells were then fixed, permeabilized and filamentous actin was visualized by fluorescence microscopy following Alexa Fluor 488 phalloidin staining. […] They induced depolymerization at 150 nM for bistramide A (1), 500 nM for analog 2 and 2 μM for analog 3. Analogs 4 and 5 induced depolymerization of actin only at concentrations as high as 100 μM. […] This observation was consistent with the enhanced cell-based activity of the compounds containing the C(1)-C(4) enone moiety.
# Fluorescent Visualization Of F-Actin In Cells. A549 cells grown on coverslips were incubated with analogs 4-8 (100 μM) analog 3 (2 μM) or analog 2 (500 nM) or bistramide A (150 nM) in F-12K cell culture medium for 2 h, fixed with 3% formaldehyde in PBS at 25° C. for 5 min and permeabilized with 0.1% Triton X-100 at 25° C. for 10 min. After washing with PBS, coverslips were stained with Alexa Fluor 488 Phalloidin and visualized by fluorescence microscopy.
# [4] = target: T1, G-actin; assay: Interaction with actin by MALDI-TOF (covalent modification); format: biochemical, rabbit; settings: 1:1 actin-drug complex, 30 min
# Protocol: Interaction Of Bistramide-Based Compounds With Actin By MALDI-TOF. A 1:1 actin-drug complex was incubated for 30 min in 2 mM Tris-HCl, pH 8.0, 0.2 mM CaCl2, 0.01% NaN3, 0.2 mM ATP, 1 mM 2-mercaptoethanol, diluted with deionized water to 26 μM and mixed with an equal volume of a solution of 10 mg/ml sinapinic acid in 50% CH3CN— 0.1% TFA. MALDI spectra were obtained on a Voyager-DE PRO biospectrometry workstation.
# [5] = tested on: non-small cell broncho-pulmonary carcinoma xenografts; settings: mouse, in vivo; cited from earlier work
# [6] = mouse, in vivo; cited from earlier work
# [7] = target: filamentous actin (Oryctolagus cuniculus, UniProt P68135); assay: TIRF microscopy of actin filament severing and depolymerization; format: biochemical, rabbit; set-up: Actin was purified from rabbit muscle acetone powder; tissue Pel-Freez Biologicals (acetone powder); host or cells: rabbit muscle acetone powder
# Source text: To gain further insight into the mode of action of bistramide A, we next investigated the interaction of the natural product and its analogs with filamentous actin. […] Similar observations have been reported for several other actin-binding natural products. However, this effect could provide only limited mechanistic information and may primarily reflect the binding of a small molecule to the filaments in close proximity to the dye and quenching of pyrene fluorescence, which could be independent of the rates of actin depolymerization. Some proteins like myosin and Actin Depolymerizing Factor (ADF)/Cofilin are known to do so. Total internal reflection fluorescence (TIRF) microscopy has recently emerged as a powerful tool to investigate actin filament dynamics and its regulation by several actin-binding proteins, as well as latrunculin A, which is […] depolymerizing filamentous actin in vitro. Thus, we decided to employ TIRF microscopy to observe in real time the effects of bistramide-based compounds on actin polymerization in vitro. We believe this is the first instance where TIRF microscopy has been utilized to study the severing of actin filaments by a small molecule. We polymerized G-actin containing 25% of tetramethylrhodamine-functionalized and 10% of biotin-functionalized actin. The resulting actin filaments were immobilized onto the streptavidin-coated glass slides (in a flow cell). Analogs 1-8 were flown through the flow cell and imaged by time-lapse TIRF microscopy.
# Total Internal Reflection Fluorescence Microscopy. Actin filament severing was studied using a custom-built total internal reflection fluorescence microscope. Images were collected with a 100×, 1.45 NA objective (Olympus) and an EMCCD camera (iXon, Andor Technologies). Glass flow cell (6 μl volume) was washed with 0.25 mg/ml neutravidin in F-buffer (50 mM KCl, 1 mM MgCl2, 1 mM EGTA, 10 mM imidiazole, 2 mM ATP, 0.2 mM 2-mercaptoethanol, 2 min) and blocked with 1 mg/ml BSA in F-buffer (2 min). Ten microliters of 200 nM Mg^2+-F-actin (10% biotinylated, 25% labeled with maleimide-6-tetramethylrhodamine) in TIRF-buffer (50 mM KCl, 1 mM MgCl2, 1 mM EGTA, 10 mM imidiazole, 2 mM ATP, 4.5 mg/ml glucose, 0.5% 2-mercaptoethanol, 4.3 mg/ml glucose oxidase, 0.7 mg/ml catalase) was added to the flowcell and incubated for 2 min. The chamber was rinsed with TIRF-buffer and imaged. Compounds were freshly diluted from their DMSO stock solutions in TIRF-buffer and were added to the chamber immediately after the start of each experiment. Images were collected at 0.2-s exposures every 3 s for 200 frames. For kinetics studies, movies of suitable length were obtained for each of the analog concentrations. Analysis was performed using ImageJ.
smiles,measurement,setting,value
"C/C=C/C(=O)C[C@@H]1CCC(C)C(CC(=O)NC[C@H](O)[C@H](C)C(=O)NCCC[C@H]2O[C@@]3(CCC[C@@H](CC[C@H](C)/C=C(\C)C(C)O)O3)CCC2C)O1 (some centres unmarked) [Bistramide A (1), bistramide A, reference compound]",Kd,[1],7 nM
same,GI50,[2],20 nM
same,GI50,[2]; values of the text,20.4 nM
same,concentration inducing actin depolymerization in A549 cells,[3],150 nM
same,covalent modification of G-actin,[4],covalently modified G-actin
same,inhibition of tumor growth in xenograft model,[5],ineffective at reducing tumor growth
same,general toxicity,[6],high general toxicity
same,effect on filamentous actin,[7]; 750 nM,rapid filament depletion
same,No. of breaks per 100 μm,[7]; compound at 0.75 μM,40.4 per 100 μm
same,Pointed-end depolymerization rate,"[7]; compound at 0.75 μM, standard deviations 0.1-0.3 subunits/s",0.49 subunits/s
same,Barbed-end depolymerization rate,"[7]; compound at 0.75 μM, standard deviations 0.4-0.6 subunits/s",1.88 subunits/s
